What was measured:
[1] = In vitro solubility assay (turbidity assay) with 7KC; format: physicochemical; conditions: 300 μM sterol, 3% ethanol in PBS, 30 mins at 37C, absorbance at 350 nm
Description: (§1) Greater affinity for one compound than another, e.g., greater affinity for 7KC than cholesterol, may be determined using a “turbidity test” performed on an aqueous suspension containing 3% ethanol, 300 uM sterol, in PBS and 1 mM of the CD to be tested. This single concentration of CD is used in order to standardize the test results. To perform the test, the samples are incubated for 30 mins at 37C, and then absorbance at 350 nm is measured, e.g., using a spectrophotometer plate reader. Relative turbidity is determined by dividing the measured turbidity in the presence of the CD to the baseline turbidity without the CD. A given CD has greater affinity for 7KC than cholesterol if the relative turbidity of the 7KC suspension is lower than the relative turbidity of the cholesterol solution.
(§2) Sterol stock solutions (including cholesterol and 7KC) were suspended in 100% ethanol. Final concentration of suspensions: 3% ethanol, 300 μM sterol, in PBS with various concentrations of CDs.

[2] = In vitro solubility assay (turbidity assay) with cholesterol; format: physicochemical; conditions: 300 μM sterol, 3% ethanol in PBS, 30 mins at 37C, absorbance at 350 nm
Description: as §1, §2

OC[C@H]1O[C@@H]2O[C@H]3[C@H](O)[C@@H](O)[C@@H](O[C@H]4[C@H](O)[C@@H](O)[C@@H](O[C@H]5[C@H](O)[C@@H](O)[C@@H](O[C@H]6[C@H](O)[C@@H](O)[C@@H](O[C@H]7[C@H](O)[C@@H](O)[C@@H](O[C@H]1[C@H](O)[C@H]2O)O[C@@H]7CO)O[C@@H]6CO)O[C@@H]5CO)O[C@@H]4CO)O[C@@H]3CO [native αCD]
solubilization / binding of 7KC (turbidity) [1]: low affinity for 7KC and cholesterol
specificity for 7KC over cholesterol (turbidity) [1]: no specificity
solubilization / binding of cholesterol (turbidity) [2]: low affinity for 7KC and cholesterol

From US20240043661A1, “CYCLODEXTRIN DIMERS AND USES THEREOF” (UNDERDOG PHARMACEUTICALS, INC., priority 2020, published 2024)
